Data from US20050234030A1, “Modulators of CRTH2, COX-2 and FAAH” (priority 2004, published 2005).

SMILES	melting point
COc1ccc2c(c1)c(CC(=O)O)c(C)n2C(=O)C1CCCCC1 [[1-(cyclohexylcarbonyl)-5-methoxy-2-methyl-1H-indol-3-yl]acetic acid]	129 °C
Cc1c(CC(=O)O)c2cc(O)ccc2n1C(=O)N1CCCCC1 [[5-hydroxy-2-methyl-1-(piperidin-1-ylcarbonyl)-1H-indol-3-yl]acetic acid]	235 °C
Cc1c(CC(=O)O)c2cc(O)c(F)cc2n1C(=O)c1cccs1 [[6-fluoro-5-hydroxy-2-methyl-1-(thien-2-ylcarbonyl)-1H-indol-3-yl] acetic acid]	219 °C
COc1cc2c(CC(=O)O)c(C)n(C(=O)c3cccs3)c2cc1F [[6-fluoro-5-methoxy-2-methyl-1-(thien-2-ylcarbonyl)-1H-indol-3-yl]acetic acid]	137 °C
COc1cc2c(CC(=O)O)c(C)n(C(=O)C3CCCCC3)c2cc1F [[1-(cyclohexylcarbonyl)-6-fluoro-5-methoxy-2-methyl-1H-indol-3-yl]acetic acid]	104 °C
